Assay results reported in patent US20250263444A1, “vIRF3-Derived Peptide and Use Thereof for Preventing or Treating Cancer” (priority 2022, published 2025).

Assays:
ATP-citrate lyase (ACLY) = experiment: Immunoblotting with anti-acetyl-lysine antibody of LEC stable cell lines treated with ACLY inhibitor; format: cell-based; conditions: LEC lines pCDH, V5-vIRF3, V5-vIRF3(Δ250-280) treated with BMS303141
Method: Acetyl-CoA is a crucial metabolite that provides acetyl groups for acetylation reaction of proteins including histone. To better understand the importance of acetyl-CoA upregulation by vIRF3 in LEC, first, it was confirmed whether vIRF3 may increase the overall acetylation level in LEC. To this end, cell lysates were analyzed by immunoblotting (IB) using an anti-acetyl-lysine antibody. […] Especially, cytosolic acetyl-CoA, which was involved in lysine acetylation of protein, regulating the activity, stability, or localization of many cell proteins is primarily generated by the translocation of citrate from the mitochondria to the cytoplasm via ATP-citrate lyase (ACLY). Therefore, three LEC stable cell lines encoding expression vectors of pCDH, V5-vIRF3, and V5-vIRF3(Δ250-280) were treated with an ACLY inhibitor BMS303141 and then analyzed by IB with an anti-acetyl-lysine antibody.

[1] = test system: recombinant KSHV-infected LECs; experiment: Xenograft model, subcutaneous peptide administration; format: in vivo, mice
tetrameric form of PKM2 = molecular target: T1, tetrameric form of PKM2 (Homo sapiens, UniProt P14618); experiment: PKM2 cross-linking and gradient SDS-PAGE immunoblotting; format: cell-based; conditions: LECs expressing vIRF3; FIG. 8B
T1 construct: endogenous in cells; host or cells: E6/E7-immortalised LECs stably expressing V5-vIRF3 by lentivirus (PKM2 endogenous, vIRF3 transduced)
Method: 293T cells were infected with indicated combination of plasmids and harvested 48 hours after infection. The cells were lysed with a NP40 lysis buffer supplemented with a protease inhibitor (150 mM NaCl, 0.5% NP40, 50 mM pH 8.0 Tris-HCl) and treated with 0.1% glutaraldehyde for 4 minutes at room temperature. Thereafter, gradient SDS-PAGE was performed with NuPAGE 4-12% Bis-Tris gel (Invitrogen) and analyzed by immunoblotting.

PKM2 [2] = molecular target: T2, PKM2 (Homo sapiens, UniProt P14618); experiment: Binding of vIRF3-derived peptide fragments to PKM2 (GST-pull down / immunoprecipitation, FIG. 7); set-up: expressed in transfected cells
Excerpt: A pCMV-HA-hPKM2 plasmid was provided by from the Miyagi Cancer Center Research Institute, Natori, Japan. In addition, a vIRF3 (Δ250-280) mutant was generated by sequentially deleting 10 amino acids from alanine 250 using a QuikChange XL site-directed mutagenesis kit (Agilent). Primer pairs used in vIRF3 deletion mutation were as follows: vIRF3(Δ250-260) forward 5′-[…]-3′ (SEQ ID NO: 8), vIRF3(Δ250-260) reverse 5′-[…]-3′ (SEQ ID NO: 9), vIRF3(Δ260-270) forward 5′-[…]-3′ (SEQ ID NO: 10), vIRF3(Δ260-270) reverse 5′-[…]-3′ (SEQ ID NO: 11), vIRF3(Δ270-280) forward 5′-[…]-3′ (SEQ ID NO: 12), and vIRF3(Δ270-280) reverse 5′-[…]-3′ (SEQ ID NO: 13). GST-tagged vIRF3 250-260, 260-270, and 270-280 were subcloned into a pEBG-GST vector with BamHI and NotI restriction sites using the following primers: vIRF3(250-260) forward 5′-[…] GGC-3′ (SEQ ID NO: 14), vIRF3(250-260) reverse 5′-[…] CG-3′ (SEQ ID NO: 15), vIRF3(260-270) forward 5′-GATCCGCCACCAT […]-3′ (SEQ ID NO: 16), vIRF3(260-270) reverse 5′-[…] G-3′ (SEQ ID NO: 17), vIRF3(270-280) forward 5′-[…] GC-3′ (SEQ ID NO: 18), and vIRF3 270-280 reverse 5′-[…] GGCG-3′ (SEQ ID NO: 19).
The indicated cells were infected regardless of the presence or absence of combination of plasmids. […] Cell lysates were immunoprecipitated against indicated proteins and analyzed by immunoblotting according to methods known in the art.

PKM2 [3] = molecular target: T2, PKM2; experiment: Pyruvate kinase activity assay in LECs treated with TAT or TAT-VDP; format: cell-based; set-up: endogenous in cells; host or cells: E6/E7-immortalised LECs (LEC-V5-vIRF3 or LEC-vector); conditions: LEC-V5-vIRF3 cells; VDP fused to HIV-1 TAT; FIG. 8C
Method: Pyruvate kinase activity assay was performed with a Pyruvate Kinase Assay Kit (Sigma Aldrich) according to manufacturer's instructions. Briefly, LECs expressing a pCDH vector, vIRF3, and vIRF3(Δ250-280), respectively were harvested and washed twice with 1×PBS. The cells were suspended in 50 μl of a pyruvate kinase assay buffer and incubated for 15 minutes. Cell debris was removed by centrifugation at 13,000 rpm for 15 minutes. The supernatant was transferred to a 96-well plate and added with a kinase assay mixture. Absorbance was measured at 570 nm wavelength using a Varioskan Lux microplate reader (Thermo scientific).

LEC-V5-vIRF3 = experiment: Chorioallantoic membrane (CAM) invasion assay; format: in vivo, chick; conditions: 0.2 mg peptide at 24 and 48 hours after cell seeding; IHC; FIG. 8D
Method: The chick fertilized eggs were incubated at 37.5° C. with 70% humidified atmosphere in a Rcom D-50 incubator (Autoelex). After embryonic day (ED) 5, a 1.5 cm square hole was opened on the eggshell and sealed with a sterile parafilm tape. Embryos were monitored by daily candling. On ED 10, sterile silicone rings were placed onto the CAM of the embryo and added with indicated cells, and then the cells were seeded. 0.2 mg of TAT (a control peptide containing only a TAT sequence of HIV-1 (synthesized by Bionics)) or TAT-VDP according to the present invention (vRIF3-derived aa250-260 peptide bound with a TAT sequence (synthesized by Bionics)) was treated at 24 and 48 hours after cell seeding. Approximately 1 cm^2 of CAM around the silicone ring was harvested and fixed with 4% paraformaldehyde at 4° C. for 24 hours. Thereafter, samples were treated for immunohistochemistry and Hematoxyling and Eosin (H&E) staining.

T2 sequence (P14618 whole entry, the tested form may be a part): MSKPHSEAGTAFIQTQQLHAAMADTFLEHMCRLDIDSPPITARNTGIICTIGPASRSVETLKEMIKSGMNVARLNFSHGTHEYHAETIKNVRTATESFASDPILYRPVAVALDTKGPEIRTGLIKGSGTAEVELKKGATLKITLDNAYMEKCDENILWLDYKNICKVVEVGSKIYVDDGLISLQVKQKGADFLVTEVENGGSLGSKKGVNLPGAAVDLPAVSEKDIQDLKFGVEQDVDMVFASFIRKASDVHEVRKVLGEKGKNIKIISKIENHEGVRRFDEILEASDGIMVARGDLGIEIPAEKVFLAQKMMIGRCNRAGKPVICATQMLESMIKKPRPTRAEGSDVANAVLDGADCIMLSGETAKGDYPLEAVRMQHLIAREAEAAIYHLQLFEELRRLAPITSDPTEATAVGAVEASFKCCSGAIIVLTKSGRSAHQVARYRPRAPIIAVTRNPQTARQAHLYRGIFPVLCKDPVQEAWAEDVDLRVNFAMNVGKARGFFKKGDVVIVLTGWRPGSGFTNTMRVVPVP
T1 sequence (P14618 2-531 limits assumed): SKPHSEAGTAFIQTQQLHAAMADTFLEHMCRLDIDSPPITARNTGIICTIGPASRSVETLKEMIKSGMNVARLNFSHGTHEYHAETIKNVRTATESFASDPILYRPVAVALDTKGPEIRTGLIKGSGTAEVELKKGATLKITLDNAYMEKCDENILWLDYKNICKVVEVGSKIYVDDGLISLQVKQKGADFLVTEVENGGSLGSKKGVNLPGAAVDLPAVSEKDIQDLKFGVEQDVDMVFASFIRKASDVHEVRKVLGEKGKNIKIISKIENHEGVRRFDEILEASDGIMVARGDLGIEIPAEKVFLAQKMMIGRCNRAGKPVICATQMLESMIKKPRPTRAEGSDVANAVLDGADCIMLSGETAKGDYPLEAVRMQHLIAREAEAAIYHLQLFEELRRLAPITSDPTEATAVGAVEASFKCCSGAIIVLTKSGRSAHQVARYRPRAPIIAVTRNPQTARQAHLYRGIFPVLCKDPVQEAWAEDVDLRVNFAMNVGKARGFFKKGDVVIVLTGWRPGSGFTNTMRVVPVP

For COc1ccc(-c2ccccc2)cc1NS(=O)(=O)c1cc(Cl)cc(Cl)c1O [BMS303141], the “increase of total acetylation levels by vIRF3” value (ATP-citrate lyase (ACLY)) was “the increase of total acetylation levels was not confirmed”.
“TAT-VDP: vRIF3-derived aa250-260 peptide bound with a TAT sequence of HIV-1 for intracellular delivery (synthesized by Bionics) (RRRQRRKKRGYGEQGVHYMLACA)” was tested, and the tumor formation ([1]; 0.2 mg peptide twice per week for 30 days, subcutaneous, FIG. 8E) was “remarkably inhibited” and the “vIRF3-mediated tetrameric form of PKM2” value (tetrameric form of PKM2) was “sufficiently prevented”.
“vIRF3(260-270): fragment peptide of amino acids 260-270 of KSHV vIRF3 (SEQ ID NO: 4) (EMDMLMRAMCD)” was tested, and the “binding to PKM2” value (PKM2 [2]) was “mutual-bound to PKM2”.
With “vIRF3(270-280): fragment peptide of amino acids 270-280 of KSHV vIRF3 (SEQ ID NO: 5) (DEDLFDLLGIP)” the “binding to PKM2” value (PKM2 [2]) was “mutual-bound to PKM2”.
With “vIRF3-derived peptide: vIRF3-derived peptide of SEQ ID NO: 1, included within aa 250-280 of KSHV vIRF3 (ACALMYHVGQEMDMLMRAMCDEDLFDLLGIP)” the “PK activity upregulated by vIRF3 expression” value (PKM2 [3]) was “significantly inhibited”, the “size and volume of tumor” value ([1]; subcutaneous injection, animal model transplanted with LECs infected with KSHV) was “significantly reduced” and the “invasion of LEC-V5-vIRF3 in CAM (invasive activity)” value (LEC-V5-vIRF3) was “significantly inhibited”.
